The values below come from ChEMBL document CHEMBL5729487, “Small molecule inhibition of transcription factor SALL4 and uses thereof” (2022).

In the experiment the target is T1, Sal-like protein 4 (Homo sapiens, UniProt Q9UJQ4).
T1 sequence (Q9UJQ4 whole entry): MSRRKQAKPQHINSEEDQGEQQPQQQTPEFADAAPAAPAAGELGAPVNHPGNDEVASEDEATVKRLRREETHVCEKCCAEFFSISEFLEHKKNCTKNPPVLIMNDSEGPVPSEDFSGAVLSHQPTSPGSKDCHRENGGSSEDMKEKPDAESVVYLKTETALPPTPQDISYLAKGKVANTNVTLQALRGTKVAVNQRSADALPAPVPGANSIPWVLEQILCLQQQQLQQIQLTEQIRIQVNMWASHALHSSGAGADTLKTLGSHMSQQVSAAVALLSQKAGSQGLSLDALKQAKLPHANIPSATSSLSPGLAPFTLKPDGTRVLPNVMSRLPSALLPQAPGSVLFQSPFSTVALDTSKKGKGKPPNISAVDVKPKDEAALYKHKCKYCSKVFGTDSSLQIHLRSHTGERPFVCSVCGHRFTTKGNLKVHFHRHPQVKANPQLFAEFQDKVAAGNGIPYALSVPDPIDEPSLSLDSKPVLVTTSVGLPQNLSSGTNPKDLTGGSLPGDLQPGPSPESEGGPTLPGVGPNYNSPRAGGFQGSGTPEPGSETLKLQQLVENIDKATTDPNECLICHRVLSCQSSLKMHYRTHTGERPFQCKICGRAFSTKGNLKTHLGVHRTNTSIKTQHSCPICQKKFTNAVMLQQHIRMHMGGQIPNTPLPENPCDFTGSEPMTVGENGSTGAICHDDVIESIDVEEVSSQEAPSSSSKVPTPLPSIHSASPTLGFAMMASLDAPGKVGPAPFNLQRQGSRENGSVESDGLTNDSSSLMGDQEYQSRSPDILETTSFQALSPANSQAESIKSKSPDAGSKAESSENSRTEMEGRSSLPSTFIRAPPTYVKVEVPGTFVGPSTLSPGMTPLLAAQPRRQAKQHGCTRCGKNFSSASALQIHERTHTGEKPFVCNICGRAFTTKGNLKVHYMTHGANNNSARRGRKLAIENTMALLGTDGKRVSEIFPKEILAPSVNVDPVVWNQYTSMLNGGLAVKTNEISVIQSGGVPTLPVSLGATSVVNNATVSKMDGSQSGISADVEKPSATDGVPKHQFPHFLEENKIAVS
The experiment is described as follows: TBD: TBD.
As a reminder, the IC50 is the concentration at which inhibition is half-maximal. Low values mean greater potency, high ones weaker potency. For the compound `COC(=O)c1cccc(Nc2c(-c3c(O)ccc4ccccc34)nc3cnccn23)c1`, the midpoint of inhibition, the IC50, lay at 0.623 µM.

In the case of `Oc1ccc2ccccc2c1-c1nc2ccccn2c1NC1CCCCC1`, the IC50 came to 2.77 µM. This IC50 lies about 4.4-fold higher than the previous one.

`Oc1ccc2ccccc2c1-c1nc2cnccn2c1NCc1ccccc1` came in with an IC50 of 0.594 µM.

On to `COc1ccc(CCNc2c(-c3c(O)ccc4ccccc34)nc3cnccn23)cc1OC`, for which the midpoint of inhibition, the IC50, lay at 2.49 µM. Compared with the last compound, the IC50 is about 4.2-fold higher.

Consider `Oc1ccc2ccccc2c1-c1nc2ccccn2c1NCc1ccccc1`, for which the IC50 stood at 1.51 µM.

As for `COc1cccc(CNc2c(-c3c(O)ccc4ccccc34)nc3cnccn23)c1`, the IC50 worked out at 0.288 µM. Against the preceding compound, the IC50 is about 5.2-fold lower.

In turn, `COCCNc1c(-c2c(O)ccc3ccccc23)nc2cnccn12` displayed an IC50 of 0.434 µM.

With `COc1ccc(Nc2c(-c3c(O)ccc4ccccc34)nc3cnccn23)cc1`, the half-inhibitory concentration (IC50) is 0.619 µM.

Turning to `Oc1ccc2ccccc2c1-c1nc2cnccn2c1NCCN1CCOCC1`, the IC50 was 1.36 µM.

For `Oc1ccc2ccccc2c1-c1nc2ccccn2c1NC1CC1`, the IC50 is 0.109 µM.

Regarding `Oc1ccc2ccccc2c1-c1nc2cnccn2c1NC1CC1`, 0.335 µM corresponded to half-maximal inhibition (IC50).

Consider `Oc1ccc2ccccc2c1-c1nc2ccccn2c1NCCN1CCOCC1`, for which half-maximal inhibition (IC50) required 2.23 µM.

`Oc1ccc2ccccc2c1-c1nc2cnccn2c1NC1CCCCC1` displayed an IC50 of 0.616 µM.

For `CC(C)(C)Nc1c(-c2c(O)ccc3ccccc23)nc2cnccn12`, the IC50 was 0.783 µM.

`CC(C)(C)Nc1c(-c2c(O)ccc3ccccc23)nc2ccccn12` came in with a half-maximal inhibitory concentration (IC50) of 0.162 µM. Against the preceding compound, the IC50 is about 4.8-fold lower.

As for `N#Cc1ccc(Nc2c(-c3c(O)ccc4ccccc34)nc3cnccn23)cc1`, the IC50 was determined as 0.498 µM. Compared with the last compound, the IC50 is about 3.1-fold higher.
